Reference: patent US20080091033A1, “Nonsolvate-Form Crystal of Polymethine Compound, Process for Producing the Same and Use Thereof” (YAMAMOTO CHEMICALS, INC., priority 2004, published 2008)
Counter-ions that a name gives are not always drawn.

How the values were obtained:
[1] = solution stability test (decomposition percentage from absorbance before and after standing); assay type: physicochemical; details: 5% (w/v) in ethanol/methyl ethyl ketone (1/1 by volume), room temperature, 10 days of standing
Experimental: A solution stability test was carried out in the following manner.
Each polymethine compound specified below in Table 1 was dissolved in a mixture of ethanol and methyl ethyl ketone (1/1 by volume) to a concentration of 5% (w/v) and the solution was allowed to stand in a room (at room temperature) for 10 days. The absorbance (gram extinction coefficient) of the solution was measured before and after standing, and the decomposition percentage was calculated using the following formula.
Decomposition percentage (%)=[(absorbance just after preparation of solution−absorbance after 10 days of standing)/(absorbance just after preparation of solution)]×100

[2] = solubility in methanol and ethanol; assay type: physicochemical; details: for solubility in ethanol: solvent ethanol; for solubility in methanol: solvent methanol

Structure (SMILES)	melting point	Decomposition percentage [1] [%]	solubility in ethanol [2] [%]	solubility in methanol [2] [%]
CN1/C(=C\C=C2/CCC(/C=C/C3=[N+](C)c4ccccc4C3(C)C)=C2Cl)C(C)(C)c2ccccc21 (as salt: toluenesulfonate) (hydrate or solvate) [Example 1]	199 to 200 °C (dec.)	–	–	–
CN1/C(=C\C=C2/CCC(/C=C/C3=[N+](C)c4ccccc4C3(C)C)=C2Cl)C(C)(C)c2ccccc21 (as salt: toluenesulfonate) (hydrate or solvate) [Example 2]	201 to 203 °C (dec.)	–	–	–
CN1/C(=C\C=C2/CCC(/C=C/C3=[N+](C)c4ccccc4C3(C)C)=C2Cl)C(C)(C)c2ccccc21 (as salt: toluenesulfonate) (hydrate or solvate) [Example 3]	198 to 199 °C (dec.)	–	–	–
CN1/C(=C\C=C2/CCC(/C=C/C3=[N+](C)c4ccccc4C3(C)C)=C2Cl)C(C)(C)c2ccccc21 [Comparative Example 1, reference compound]	–	8.1	–	–
CN1/C(=C\C=C2/CCC(/C=C/C3=[N+](C)c4ccccc4C3(C)C)=C2Cl)C(C)(C)c2ccccc21 [Example 1]	–	2.0	≥ 15	≥ 15
CN1/C(=C\C=C2/CCC(/C=C/C3=[N+](C)c4ccccc4C3(C)C)=C2Cl)C(C)(C)c2ccccc21 [Example 2]	–	2.1	≥ 15	≥ 15

Now from value to compound:

melting point	Decomposition percentage [1] [%]	solubility in ethanol [2] [%]	solubility in methanol [2] [%]	Structure (SMILES)
–	2.2	≥ 15	≥ 15	CN1/C(=C\C=C2/CCC(/C=C/C3=[N+](C)c4ccccc4C3(C)C)=C2Cl)C(C)(C)c2ccccc21 [Example 3]
–	1.9	≥ 15	≥ 15	CN1/C(=C\C=C2/CCC(/C=C/C3=[N+](C)c4ccccc4C3(C)C)=C2Cl)C(C)(C)c2ccccc21 [Example 4]
–	–	≥ 15	≥ 15	CN1/C(=C\C=C2/CCC(/C=C/C3=[N+](C)c4ccccc4C3(C)C)=C2Cl)C(C)(C)c2ccccc21 [Example 5]
